Here are results for 13 compounds from US20220348592A1, “FUSED HETEROCYCLIC DERIVATIVES” (Janssen Sciences Ireland Unlimited Company, priority 2019, published 2022).

In general, EC50 refers to the concentration at which the effect is half-maximal. What is called CC50 is the concentration that lowers cell viability or growth by half.

Like-named read-outs stand apart in the source and are kept apart here.

In data set [1] the test system is HBV. Briefly: Anti-HBV activity: intracellular HBV DNA by real-time PCR in HepG2.117 cell line. Conditions: Hepatitis B virus, read-out: HBV-AVE-HepG2.117 EC50 (μM, mean value). It counts as cell-based, Hepatitis B virus. The method, then: The anti HBV activity was measured using the HepG2.117 cell line, a stable, inducibly HBV producing cell line, which replicates HBV in the absence of doxicycline (Tet-off system). The HepG2 cell line is available from ATCC® under number HB-8065. Transfection of the HepG2 cell line can be as described in Sun and Nassal 2006 Journal of Hepatology 45 (2006) 636-645 “Stable HepG2- and Huh7-based human hepatoma cell lines for efficient regulated expression of infectious hepatitis B virus”.
For the antiviral assay, HBV replication was induced, followed by a treatment with serially diluted compound in 96-well plates. After 3 days of treatment, the antiviral activity was determined by quantification of intracellular HBV DNA using real-time PCR and an HBV specific primer set and probe.

The nature of data set [2]: Cytotoxicity in HepG2.117 cells, ATPlite Luminescence Assay. It counts as cell-based, human. The settings on record: human, incubated for 3 days, mean value, read-out: TOX-HepG2.117 CC50 (μM, mean value). The protocol:
Cytotoxicity of the compounds was tested using HepG2 or HepG2.117 cells, incubated for 3 days in the presence of compounds. The viability of the cells was assessed using the PERKIN ELMER ATPlite Luminescence Assay System.”
In general terms: Cellular ATP, detected with luciferase, serves as a proxy for viable cell number.

Setting [3] is: 72 h, HepG2.117 cells, 3 days of treatment, intracellular HBV DNA by real-time PCR, mean value.

In the case of `C[C@@H]1Cc2nn3c(c2CN1C(=O)c1ccc(Cl)c(Cl)c1)C(=O)NCCC3` [Compound 38, (3R)-2-(3,4-Dichlorobenzoyl)-3-methyl-1,2,3,4,7,8,9,10-octahydro-11H-pyrido[4′,3′:3,4]-pyrazolo[1,5-a][1,4]diazepin-11-one], in data set [1] (setting [3]), the EC50 turned out to be 1.75 µM. Also, the CC50 at 3 days in data set [2] is over 50 µM.
`CC(C)CN1CCCn2nc3c(c2C1=O)CN(C(=O)c1ccc(Cl)c(Cl)c1)[C@H](C)C3` [Compound 39, (3R)-2-(3,4-Dichlorobenzoyl)-3-methyl-10-(2-methylpropyl)-1,2,3,4,7,8,9,10-octahydro-11H-pyrido[4′,3′:3,4]pyrazolo[1,5-a][1,4]diazepin-11-one]: in data set [1] (HepG2.117, 72 h), the 50% effective concentration (EC50) is 2.49 µM. In data set [2], the CC50 at 3 days was over 50 µM.
As for `COc1ccc(CN2CCCn3nc4c(c3C2=O)CN(C(=O)c2ccc(Cl)c(Cl)c2)[C@H](C)C4)cc1` [Compound 40, (3R)-2-(3,4-Dichlorobenzoyl)-10-[(4-methoxyphenyl)methyl]-3-methyl-1,2,3,4,7,8,9,10-octahydro-11H-pyrido[4′,3′:3,4]pyrazolo[1,5-a][1,4]diazepin-11-one], the EC50 in data set [1] (setting [3]) is 0.022 µM. In addition, the cytotoxic concentration (CC50) at 3 days in data set [2] stood at 20.9 µM.
Turning to `COc1ccc(CN2CC(NS(C)(=O)=O)Cn3nc4c(c3C2=O)CN(C(=O)c2ccc(Cl)c(Cl)c2)CC4)cc1` (centres unmarked) [Compound 41, N-{2-(3,4-Dichlorobenzoyl)-10-[(4-methoxyphenyl)methyl]-11-oxo-1,3,4,7,8,9,10,11-octahydro-2H-pyrido[4′,3′:3,4]pyrazolo[1,5-a][1,4]diazepin-8-yl}methanesulfonamide], in data set [1] (setting [3]), the concentration for a half-maximal effect (EC50) was found to be 0.328 µM. The half-maximal cytotoxic concentration (CC50) at 3 days in data set [2] is over 50 µM.
With `C=C1CN(C)C(=O)c2c3c(nn2C1)C[C@@H](C)N(C(=O)c1ccc(Cl)c(Cl)c1)C3` [Compound 42, (3R)-2-(3,4-Dichlorobenzoyl)-3,10-dimethyl-8-methylidene-1,2,3,4,7,8,9,10-octahydro-11H-pyrido[4′,3′:3,4]pyrazolo[1,5-a][1,4]diazepin-11-one], the EC50 in data set [1] (setting [3]) is 0.308 µM. For the same compound, the 50% cytotoxic concentration (CC50) at 3 days in data set [2] is 1.44 µM.
For `C=C1CN(CC(F)(F)F)C(=O)c2c3c(nn2C1)CCN(C(=O)c1ccc(Cl)c(Cl)c1)C3` [Compound 43, 2-(3,4-Dichlorobenzoyl)-8-methylidene-10-(2,2,2-trifluoroethyl)-1,2,3,4,7,8,9,10-octahydro-11H-pyrido[4′,3′:3,4]pyrazolo[1,5-a][1,4]diazepin-11-one], the half-maximal effective concentration (EC50) in data set [1] (setting [3]) amounted to 0.21 µM. Besides, the cytotoxic concentration (CC50) at 3 days in data set [2] is over 50 µM.
With `C[C@@H]1Cc2nn3c(c2CN1C(=O)c1ccc(Cl)c(Cl)c1)C(=O)N(C)C[C@@H](F)C3` [Compound 44], in data set [1] (setting [3]), the EC50 was 0.079 µM. In data set [2], the CC50 at 3 days is over 50 µM.
Taken in the same sequence, the figures for `O=C(c1ccc(Cl)c(Cl)c1)N1CCc2nn3c(c2C1)C(=S)NCCC3` [Compound 48, (3,4-dichlorophenyl)(11-sulfanylidene-1,3,4,7,8,9,10,11-octahydro-2H-pyrido[4′,3′:3,4]pyrazolo-[1,5-a][1,4]diazepin-2-yl)methanone] were 1.23 µM and over 50 µM.
For the compound `COc1ccc(CN2CCn3nc4c(c3C2=O)CN(C(=O)c2ccc(F)c(C)c2)CC4)cc1` [Example C49], the concentration giving a half-maximal response (EC50) in data set [1] (setting [3]) was found to be 0.274 µM. For the same compound, the cytotoxic concentration (CC50) at 3 days in data set [2] is 20.6 µM.
On to `COc1ccc(CN2CCn3nc4c(c3C2=O)CN(C(=O)c2ccc(F)c(C#N)c2)CC4)cc1` [Example C52], for which, in data set [1] (setting [3]), the half-maximal effective concentration (EC50) turned out to be 0.995 µM. For the same compound, the CC50 at 3 days in data set [2] is over 50 µM.
Regarding `COc1ccc(CN2CCn3nc4c(c3C2=O)CN(C(=O)c2ccc(C)c(F)c2)CC4)cc1` [Example C53], the EC50 in data set [1] (setting [3]) stood at 1.08 µM. The half-maximal cytotoxic concentration (CC50) at 3 days in data set [2] came out at 20.4 µM.
The like results for `COc1ccc(CN2CCn3nc4c(c3C2=O)CN(C(=O)c2cccc(Cl)c2)CC4)cc1` [Example C54] were, in that order, 1.99 µM and 13.6 µM.
On to `COc1ccc(CN2CCn3nc4c(c3C2=O)CN(C(=O)c2cc(F)c(F)c(F)c2)CC4)cc1` [Example C56], for which the EC50 in data set [1] (setting [3]) came to 0.962 µM. Moreover, the CC50 at 3 days in data set [2] was found to be 28.4 µM.
